Experimental data reported in patent US20100261690A1, “NOVEL COMBINATIONS” (ASTRAZENECA R&D, priority 2009, published 2010).

Tested on: LPS-induced TNFα production in human peripheral blood mononuclear cells (PBMCs)
Assay: Inhibition of LPS-induced TNFα production in human peripheral blood mononuclear cells (AlphaLISA)
Type: cell-based
Details: PBMC
Experimental: Inhibition of Lipopolysaccharride (LPS)-Induced TNFα Production in Human Peripheral Blood Mononuclear Cells
Human isolated peripheral blood mononuclear cells (PBMCs) were pre-incubated with a range of concentrations of the GR agonist (1R,3aS,3bS,10aR,10bS,11S,12aS)-1-{[(cyanomethyl)sulfanyl]carbonyl}-7-(4-fluorophenyl)-11-hydroxy-10a,12a-dimethyl-1,2,3,3a,3b,4,5,7,10,10a,10b,11,12,12a-tetradecahydrocyclopenta[5,6]naphtho[1,2-f]indazol-1-yl furan-2-carboxylate (Compound A), alone or in the presence of a range of concentrations of a second compound with a distinct pharmacological activity for 45 minutes at 37° C. After the pre-incubation period, the cells were then incubated with LPS (5 ng/mL) for 18 hr at 37° C. to induce TNFα production. The total assay volume was 200 μL. At the end of the incubation period, 10 μL of the culture supernatant diluted 1:5 was analysed to quantify the TNFα released using AlphaLISA (PerkinElmer). The fluorescence was detected on an EnVision Alphareader. Inhibition curves were fitted using a 4-parameter logistic equation in a non-linear curve fitting routine and activity was expressed as pIC50.
In each table, the data represents the mean of two separate experiments using PBMC from healthy blood donors (n=2).

Compound `C[C@]12Cc3cnn(-c4ccc(F)cc4)c3C=C1CC[C@@H]1[C@@H]2[C@@H](O)C[C@@]2(C)[C@H]1CC[C@]2(OC(=O)c1ccco1)C(=O)SCC#N` [Compound A, (1R,3aS,3bS,10aR,10bS,11S,12aS)-1-{[(cyanomethyl)sulfanyl]carbonyl}-7-(4-fluorophenyl)-11-hydroxy-10a,12a-dimethyl-1,2,3,3a,3b,4,5,7,10,10a,10b,11,12,12a-tetradecahydrocyclopenta[5,6]naphtho[1,2-f]indazol-1-yl furan-2-carboxylate] has an IC50 (read-out: pIC50 for inhibition of LPS-induced TNFα production from human PBMC (converted)) of 0.708 nM.

Work on `CNCCOc1ccccc1C1(Nc2nccn(-c3cc(C(=O)NC4CC4)cc(F)c3C)c2=O)CC1` [Compound E, N-cyclopropyl-3-fluoro-4-methyl-5-{3-[(1-{2-[2-(methylamino)ethoxy]phenyl}cyclopropyl)amino]-2-oxopyrazin-1(2H)-yl}benzamide] yielded an inhibition at 1 µM (Compound A 1000 nM in combination with the listed second compound at 1 μM, mean n=2, read-out: % inhibition @ 1000 nM (maximal inhibition)) of 99.4%.
